In patent publication US20240316207A1, “SHP2 INHIBITOR, PHARMACEUTICAL COMPOSITION COMPRISING SAME AND APPLICATION THEREOF” (BEIJING TIDE PHARMACEUTICAQL CO., LTD., priority 2021, published 2024) one finds DC50 data, which are given here for 19 compounds.

The target of this assay is T1, SHP2 (Homo sapiens, UniProt Q06124).
T1 construct: endogenous in cells; host or cells: MV411 (MV4-11) leukemia cells
T1 sequence (Q06124 1-593): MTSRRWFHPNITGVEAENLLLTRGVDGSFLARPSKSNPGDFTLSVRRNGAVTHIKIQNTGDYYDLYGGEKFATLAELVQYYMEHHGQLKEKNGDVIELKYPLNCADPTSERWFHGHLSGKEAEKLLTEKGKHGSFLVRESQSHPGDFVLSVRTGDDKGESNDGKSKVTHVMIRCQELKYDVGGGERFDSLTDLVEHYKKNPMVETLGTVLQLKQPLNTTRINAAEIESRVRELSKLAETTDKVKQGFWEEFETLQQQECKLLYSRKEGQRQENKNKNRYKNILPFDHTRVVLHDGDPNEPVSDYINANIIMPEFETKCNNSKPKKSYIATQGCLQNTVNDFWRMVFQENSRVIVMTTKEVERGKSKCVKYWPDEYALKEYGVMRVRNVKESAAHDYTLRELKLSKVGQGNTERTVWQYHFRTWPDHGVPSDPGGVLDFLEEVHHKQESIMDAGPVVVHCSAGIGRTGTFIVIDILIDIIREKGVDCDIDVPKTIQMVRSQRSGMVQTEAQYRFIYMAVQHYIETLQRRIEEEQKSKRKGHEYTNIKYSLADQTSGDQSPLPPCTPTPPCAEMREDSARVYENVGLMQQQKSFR
Nature of the assay: SHP2 degradation in MV411 cells (Western blot, SHP-2 antibody). The assay is classed as cell-based. The settings on record: MV 411 cells, 24 hours with compound, SHP2 protein level by Western blot. An excerpt:
Reagent: complete DMEM medium, Gibco products. Fetal bovine serum, manufactured by ThermoFisher. Trypsin, manufactured by ThermoFisher. The SHP-2 antibody is produced by CST.
Cell line, MV 411, the blast cells of patients with bi-phenotypic B-myelomonocytic leukemia, was established by Rovera.
Measuring method: took the cells growing in the logarithmic phase, collected and suspended the cells in DMEM containing 10% fetal calf serum, gently blowed and beated the cells into single cell suspension by using a pipette, and counted the living cells under a microscope. […] Then cultured for 24 hours. All cells were collected and washed with PBS, lysed with RIPA lysate and collected into a 1.7 ml tube. […] metal bath for 5 minutes to fully denature the protein. 100V constant voltage electrophoresis after Western condensation and loading, stopped when bromophenol blue band reached the end point. The cellulose acetate membrane is transferred by a wet method, 45 minutes at a constant flow of 300-500 mA, 5% BSA is used for blocking for 1-2 hours at room temperature. Primary antibody of 1:500-1:8000 were used for incubation at 25° C. for 40 minutes and then washed three times. Secondary antibody was used for incubation for 15-40 min at room temperature. The proteins were detected using ultrasensitive ECL luminophores such as Enlight, using an X-Ray film automatic developing machine. See the statistical tables below, and FIGS. 1 and 2 for test results.
Effective Concentration of the Compound of the Invention in the Cell Line for Inhibiting SHP2
On to `CCOc1cc(O)c(C(=O)/C=C/c2ccc(NCCOCCOCCOCCNc3cccc4c3C(=O)N(C3CCC(=O)NC3=O)C4=O)cc2Cl)cc1CN1CCC[C@H]1C(N)=O` (stereo partly shown) [TDC.2001], for which the DC50 (as a rule, the concentration giving 50% degradation) was determined as 128 nM. Consider `CCOc1cc(O)c(C(=O)/C=C/c2ccc(NCCOCCOCCNc3cccc4c3C(=O)N(C3CCC(=O)NC3=O)C4=O)cc2Cl)cc1CN1CCNCC1` (stereo not shown) [TDC.2002], for which the DC50 turned out to be 336 nM. Under `CCOc1cc(O)c(C/C=C/c2ccc(N3CCN(C(=O)CCCCCCC(=O)Nc4cccc5c4C(=O)N(C4CCC(=O)NC4=O)C5=O)CC3)cc2Cl)cc1CN1CCC=C(n2c(=O)[nH]c3ccccc32)C1` (stereo not shown) [TDC.2003] stands 52 nM. Regarding `CCOc1cc(O)c(C/C=C/c2ccc(N3CCN(C(=O)CCCCCC(=O)Nc4cccc5c4C(=O)N(C4CCC(=O)NC4=O)C5=O)CC3)cc2Cl)cc1CN1CCCC(n2c(=O)[nH]c3ccccc32)C1` (stereo not shown) [TDC.2004], the DC50 came to 120 nM. As to `CCOc1cc(O)c(C(=O)/C=C/c2ccc(NCCOCCOCCNc3cccc4c3C(=O)N(C3CCC(=O)NC3=O)C4=O)cc2Cl)cc1CN1CCN(C)CC1` (stereo not shown) [TDC.2005], the DC50 turned out to be 321 nM. As for `CCOc1cc(O)c(C(=O)/C=C/c2ccc(NCCOCCOCCNc3cccc4c3C(=O)N(C3CCC(=O)NC3=O)C4=O)cc2Cl)cc1CN1CCOCC1` (stereo not shown) [TDC.2006], the DC50 stood at 445 nM. With `CCOc1cc(O)c(C(=O)/C=C/c2ccc(NCCOCCOCCNc3cccc4c3C(=O)N(C3CCC(=O)NC3=O)C4=O)cc2Cl)cc1CN1CCC[C@H]1CO` (stereo partly shown) [TDC.2007] the figure was 125 nM; with `CCOc1cc(O)c(C(=O)/C=C/c2ccc(NCCOCCOCCNc3cccc4c3C(=O)N(C3CCC(=O)NC3=O)C4=O)cc2Cl)cc1CN1CCC[C@H]1COC` (stereo partly shown) [TDC.2008], 215 nM. Turning to `CCOc1cc(O)c(C(=O)/C=C/c2ccc(N3CCN(CCOCCOCCOc4cccc5c4C(=O)N(C4CCC(=O)NC4=O)C5=O)CC3)cc2Cl)cc1CN1CCCC(n2c(=O)[nH]c3ccccc32)C1` (stereo not shown) [TDC.2009], the DC50 was 16 nM. Consider `CCOc1cc(O)c(C(=O)/C=C/c2ccc(N3CCN(CCOCCOCCOc4cccc5c4C(=O)N(C4CCC(=O)NC4=O)C5=O)CC3)cc2Cl)cc1CN1CCC=C(n2c(=O)[nH]c3ccccc32)C1` (stereo not shown) [TDC.2010], for which the DC50 was found to be 81 nM. Consider `CCOc1cc(O)c(C(=O)/C=C/c2ccc(N3CCN(CCOCCOCCOc4cccc5c4C(=O)N(C4CCC(=O)NC4=O)C5=O)CC3)cc2Cl)cc1CN1CCC[C@H]1C(N)=O` (stereo partly shown) [TDC.2011], for which the DC50 was 138 nM. On to `CCOc1cc(O)c(C(=O)/C=C/c2ccc(N3CCN(CCOCCOCCOc4cccc5c4C(=O)N(C4CCC(=O)NC4=O)C5=O)CC3)cc2Cl)cc1CN1CCC[C@@H]1CO` (stereo partly shown) [TDC.2012], for which the DC50 stood at 10 nM.

`C=C/C(OCCOCCOCCN1CCN(c2ccc(/C=C/C(=O)c3cc(CN4CCC[C@H]4COC)c(OCC)cc3O)c(Cl)c2)CC1)=C1\C(=C)C(=O)N(C2CCC(=O)NC2=O)C1=O` (stereo partly shown) [TDC.2013]: the DC50 was determined as 203 nM.

Take `CCOc1cc(O)c(C(=O)/C=C/c2ccc(N3CCN(CCOCCOCCOCCNc4cccc5c4C(=O)N(C4CCC(=O)NC4=O)C5=O)CC3)cc2Cl)cc1CN1CCCC(n2c(=O)[nH]c3ccccc32)C1` (stereo not shown) [TDC.2014]: the DC50 came out at 102 nM.

For the compound `CCOc1cc(O)c(C(=O)/C=C/c2ccc(NCCOCCOCCCOCCNc3cccc4c3C(=O)N(C3CCC(=O)NC3=O)C4=O)cc2Cl)cc1CN1CCC=C(n2c(=O)[nH]c3ccccc32)C1` (stereo not shown) [TDC.2015], the DC50 worked out at 97 nM. With `CCOc1cc(O)c(C(=O)/C=C/c2ccc(NCCOCCOCCNc3cccc4c3C(=O)N(C3CCC(=O)N(C(C)OC(=O)CC)C3=O)C4=O)cc2Cl)cc1CN1CCN(C)CC1` (stereo not shown) [TDC.2016], the DC50 turned out to be 356 nM. Under `CCOc1cc(O)c(C(=O)/C=C/c2ccc(NCCOCCOCCOc3cccc4c3C(=O)N(C3CCC(=O)NC3=O)C4=O)cc2Cl)cc1CN1CCC[C@H]1COC` (stereo partly shown) [TDC.2017] stands 183 nM; under `CCOc1cc(O)c(C(=O)/C=C/c2ccc(NCCOCCOCCOCCOc3cccc4c3C(=O)N(C3CCC(=O)NC3=O)C4=O)cc2Cl)cc1CN1CCC[C@H]1C(N)=O` (stereo partly shown) [TDC.2018], 142 nM. For the compound `CCOc1cc(O)c(C(=O)/C=C/c2ccc(N3CCN(CCOCCOCCOc4cccc5c4C(=O)N(C4CCC(=O)N(COC(=O)C(C)(C)C)C4=O)C5=O)CC3)cc2Cl)cc1CN1CCCC(n2c(=O)[nH]c3ccccc32)C1` (stereo not shown) [TDC. 2020], the DC50 came to 13 nM.
